Measurements as given in publication PMC11995724, “Antibiotic target discovery by integrated phenotypic and activity-based profiling of electrophilic fragments” (Cell chemical biology, 2025).

Experiment: in vitro
Conditions: human, hek293t cells

Row | Structure (SMILES) | viability at 48 h, 25 µM
1 | CC(C)NC(=O)C(C#N)=Cc1cccc(F)c1F [9-J20, 2-cyano-3-(2,3-difluorophenyl)-N-(propan-2-yl)prop-2-enamide] | 98%
2 | Cc1cc(C=C(C#N)C(=O)Nc2ccccn2)c(C)n1CC(C)C [9-J21, 2-cyano-3-[2,5-dimethyl-1-(2-methylpropyl)-1H-pyrrol-3-yl]-N-(pyridin-2-yl)prop-2-enamide] | 87.2%
3 | N#CC(=Cc1ccc(F)c(F)c1)C(=O)NC1CCCCC1 [9-J22, 2-cyano-N-cyclohexyl-3-(3,4-difluorophenyl)prop-2-enamide] | 101%
4 | CC(NC(=O)C(C#N)=Cc1ccco1)c1cccnc1 (stereo not shown) [9-K03, 2-cyano-3-(furan-2-yl)-N-[1-(pyridin-3-yl)ethyl]prop-2-enamide] | 129%
5 | N#CC(=Cc1ccc(OC(F)F)cc1)C(=O)Nc1cccnc1 [9-K04, 2-cyano-3-[4-(difluoromethoxy)phenyl]-N-(pyridin-3-yl)prop-2-enamide] | 115%
6 | CCc1nsc(N2CCN(C(=O)C(C#N)=Cc3ccco3)CC2)n1 [9-K05, 2-[4-(3-ethyl-1,2,4-thiadiazol-5-yl)piperazine-1-carbonyl]-3-(furan-2-yl)prop-2-enenitrile] | 121%
7 | N#CC(=Cc1c(Cl)cccc1Cl)C(=O)NCc1ccco1 [9-K06, 2-cyano-3-(2,6-dichlorophenyl)-N-[(furan-2-yl)methyl]prop-2-enamide] | 29.2%
8 | CC(C)NC(=O)C(C#N)=Cc1ccc(Cl)cc1Cl [9-K07, 2-cyano-3-(2,4-dichlorophenyl)-N-(propan-2-yl)prop-2-enamide] | 49.5%
9 | Cc1ccc(C=C(C#N)C(=O)Nc2ccccc2C(=O)O)s1 [9-K08, 2-[2-cyano-3-(5-methylthiophen-2-yl)prop-2-enamido]benzoic acid] | 104%
10 | N#CC(=Cc1cccc(F)c1)C(=O)NCc1ccccc1 [9-K09, N-benzyl-2-cyano-3-(3-fluorophenyl)prop-2-enamide] | 109%
11 | N#CC(=Cc1ccc2ccccc2c1)C(=O)NC(N)=O [9-K10, {2-cyano-2-[(naphthalen-2-yl)methylidene]acetyl}urea] | 116%
12 | COc1cc(C=C(C#N)C(=O)NC(C)C)cc(Cl)c1O [9-K11, 3-(3-chloro-4-hydroxy-5-methoxyphenyl)-2-cyano-N-(propan-2-yl)prop-2-enamide] | 115%
13 | N#CC(=Cc1ccc(N2CCCC2)cc1)C(=O)N1CCC(C(N)=O)CC1 [9-K12, 1-(2-cyano-2-{[4-(pyrrolidin-1-yl)phenyl]methylidene}acetyl)piperidine-4-carboxamide] | 108%
14 | COc1cc(C=C(C#N)C(N)=O)cc(OC)c1OC [9-K13, 2-cyano-3-(3,4,5-trimethoxyphenyl)prop-2-enamide] | 129%
15 | N#CC(=Cc1cccnc1)C(=O)NCCc1ccccc1 [9-K14, 2-cyano-N-(2-phenylethyl)-3-(pyridin-3-yl)prop-2-enamide] | 89.3%
16 | Cc1ccc(C=C(C#N)C(=O)NC2CC2)s1 [9-K15, 2-cyano-N-cyclopropyl-3-(5-methylthiophen-2-yl)prop-2-enamide] | 126%
17 | N#CC(=Cc1ccc(-c2ccc(Cl)cc2)o1)C(=O)NC1CC1 [9-K16, 3-[5-(4-chlorophenyl)furan-2-yl]-2-cyano-N-cyclopropylprop-2-enamide] | 91%
18 | Cc1ccc(NC(=O)C(C#N)=Cc2ccccc2OC(F)F)c(C)c1 [9-K17, 2-cyano-3-[2-(difluoromethoxy)phenyl]-N-(2,4-dimethylphenyl)prop-2-enamide] | 94.9%
19 | CC1=C(C#N)C(=O)N(C)C(=O)C1=Cc1ccc(-c2ccccc2Cl)o1 [9-K18, 5-{[5-(2-chlorophenyl)furan-2-yl]methylidene}-1,4-dimethyl-2,6-dioxo-1,2,5,6-tetrahydropyridine-3-carbonitrile] | 126%
20 | N#CC(=Cc1ccccc1OC(F)F)C(=O)Nc1nccs1 [9-K19, 2-cyano-3-[2-(difluoromethoxy)phenyl]-N-(1,3-thiazol-2-yl)prop-2-enamide] | 119%
21 | N#CC(=Cc1ccc2c(c1)OCCO2)C(=O)Nc1ccc(F)cc1 [9-K20, 2-cyano-3-(2,3-dihydro-1,4-benzodioxin-6-yl)-N-(4-fluorophenyl)prop-2-enamide] | 114%
22 | N#CC(=Cc1ccc([N+](=O)[O-])cc1)C(=O)Nc1cccc2ncccc12 [9-K21, 2-cyano-3-(4-nitrophenyl)-N-(quinolin-5-yl)prop-2-enamide] | 114%
23 | CCOc1cc(C=C(C#N)C(=O)Nc2nccs2)cc(Cl)c1O [9-K22, 3-(3-chloro-5-ethoxy-4-hydroxyphenyl)-2-cyano-N-(1,3-thiazol-2-yl)prop-2-enamide] | 110%
24 | COc1ccc(NC(=O)C(C#N)=Cc2cnc3c(C)cccn23)cc1 [9-L03, 2-cyano-N-(4-methoxyphenyl)-3-{8-methylimidazo[1,2-a]pyridin-3-yl}prop-2-enamide] | 111%
25 | CCCCNC(=O)C(C#N)=Cc1c[nH]nn1 [9-L04, N-butyl-2-cyano-3-(1H-1,2,3-triazol-4-yl)prop-2-enamide] | 116%

Row | Structure (SMILES) | viability at 48 h, 25 µM
26 | CSc1ccc(C=C(C#N)C(=O)Nc2ccc3c(c2)OCCO3)cc1 [9-L05, 2-cyano-N-(2,3-dihydro-1,4-benzodioxin-6-yl)-3-[4-(methylsulfanyl)phenyl]prop-2-enamide] | 114%
27 | C=CCNC(=O)C(C#N)=Cc1ccc2c(c1)OCCO2 [9-L06, 2-cyano-3-(2,3-dihydro-1,4-benzodioxin-6-yl)-N-(prop-2-en-1-yl)prop-2-enamide] | 86.7%
28 | C=CCNC(=O)C(C#N)=Cc1c(C)nn(-c2ccc(F)cc2)c1Cl [9-L07, 3-[5-chloro-1-(4-fluorophenyl)-3-methyl-1H-pyrazol-4-yl]-2-cyano-N-(prop-2-en-1-yl)prop-2-enamide] | 91.8%
29 | N#CC(=Cc1cccs1)C(=O)NCc1ccco1 [9-L08, 2-cyano-N-[(furan-2-yl)methyl]-3-(thiophen-2-yl)prop-2-enamide] | 110%
30 | N#CC(=Cc1ccco1)C(=O)NC1CCN(c2ccc(F)cc2F)C1 (stereo not shown) [9-L09, 2-cyano-N-[1-(2,4-difluorophenyl)pyrrolidin-3-yl]-3-(furan-2-yl)prop-2-enamide] | 111%
31 | C=CCNC(=O)C(C#N)=Cc1cccc2ccccc12 [9-L10, 2-cyano-3-(naphthalen-1-yl)-N-(prop-2-en-1-yl)prop-2-enamide] | 96.5%
32 | N#CC(=Cc1cccs1)C(=O)Nc1ccccc1Cl [9-L11, N-(2-chlorophenyl)-2-cyano-3-(thiophen-2-yl)prop-2-enamide] | 112%
33 | N#CC(=Cc1ccc(OC(F)F)c(Cl)c1)C(N)=O [9-L12, 3-[3-chloro-4-(difluoromethoxy)phenyl]-2-cyanoprop-2-enamide] | 106%
34 | N#CC(=Cc1cccc(Cl)c1)C(=O)NCc1ccccc1 [9-L13, N-benzyl-3-(3-chlorophenyl)-2-cyanoprop-2-enamide] | 39.5%
35 | CNC(=O)C(C#N)=Cc1cccc(-c2ccncc2)c1 [9-L14, 2-cyano-N-methyl-3-[3-(pyridin-4-yl)phenyl]prop-2-enamide] | 108%
36 | Cn1cc(C=C(C#N)C(=O)Nc2ccccc2F)c(-c2ccncc2)n1 [9-L15, 2-cyano-N-(2-fluorophenyl)-3-[1-methyl-3-(pyridin-4-yl)-1H-pyrazol-4-yl]prop-2-enamide] | 130%
37 | Cn1cc(C=C(C#N)C(=O)NC2CCCC2)c(-c2ccncc2)n1 [9-L16, 2-cyano-N-cyclopentyl-3-[1-methyl-3-(pyridin-4-yl)-1H-pyrazol-4-yl]prop-2-enamide] | 119%
38 | COc1ccccc1C=CC=C(C#N)C(=O)Nc1ccccn1 [9-L17, 2-cyano-5-(2-methoxyphenyl)-N-(pyridin-2-yl)penta-2,4-dienamide] | 91.4%
39 | CC(=O)N(C)c1cccc(NC(=O)C(C#N)=Cc2ccco2)c1 [9-L18, 2-cyano-3-(furan-2-yl)-N-[3-(N-methylacetamido)phenyl]prop-2-enamide] | 104%
40 | N#CC1=C(N2CCOCC2)SC(c2cccc([N+](=O)[O-])c2)NC1=O (stereo not shown) [9-L19, 6-(morpholin-4-yl)-2-(3-nitrophenyl)-4-oxo-3,4-dihydro-2H-1,3-thiazine-5-carbonitrile] | 129%
41 | CC(C)Oc1ccccc1C=C(C#N)C(=O)Nc1ccc(Cl)cc1 [9-L20, N-(4-chlorophenyl)-2-cyano-3-[2-(propan-2-yloxy)phenyl]prop-2-enamide] | 89.4%
42 | CC(NC(=O)C(C#N)=Cc1ccc(C(F)(F)F)cc1)c1ccccc1 (stereo not shown) [9-L21, 2-cyano-N-(1-phenylethyl)-3-[4-(trifluoromethyl)phenyl]prop-2-enamide] | 2.11%
43 | CC(O)=C(C#N)C(=O)Nc1ccc(-c2ccccc2Cl)c(Cl)c1 [9-L22, 2-cyano-N-{2,2'-dichloro-[1,1'-biphenyl]-4-yl}-3-hydroxybut-2-enamide] | 117%
44 | N#CC(=Cc1cnn(Cc2ccccc2)c1)C(=O)Nc1nccs1 [9-M03, 3-(1-benzyl-1H-pyrazol-4-yl)-2-cyano-N-(1,3-thiazol-2-yl)prop-2-enamide] | 111%
45 | Cc1ccc(C=C(C#N)C(N)=O)c(C)c1 [9-M04, 2-cyano-3-(2,4-dimethylphenyl)prop-2-enamide] | 115%
46 | N#CC(=Cc1cccc2nccn12)C(=O)Nc1ccccc1 [9-M05, 2-cyano-3-{imidazo[1,2-a]pyridin-5-yl}-N-phenylprop-2-enamide] | 125%
47 | N#CC(=Cc1ccc(F)c(F)c1)C(=O)NC1CC1 [9-M06, 2-cyano-N-cyclopropyl-3-(3,4-difluorophenyl)prop-2-enamide] | 109%
48 | CC(C)NC(=O)C(C#N)=Cc1ccc(Cl)c(Cl)c1 [9-M07, 2-cyano-3-(3,4-dichlorophenyl)-N-(propan-2-yl)prop-2-enamide] | 30.2%
49 | CSc1ccc(C=C(C#N)C(=O)Nc2ccc(C(=O)O)cc2)cc1 [9-M08, 4-{2-cyano-3-[4-(methylsulfanyl)phenyl]prop-2-enamido}benzoic acid] | 118%
